# Data from patent US8178688B2, “Benzamidine derivatives, process for the preparation thereof and pharmaceutical composition comprising the same” (Dong Wha Pharmaceutical Co., Ltd., priority 2004, dated 2012).
# Test system: osteoclast differentiation
# Assay: Inhibitory effects on osteoclast differentiation (co-culture of bone marrow cells with osteoblast, TRAP staining)
# Type: cell-based, mice
# Details: co-culture of bone marrow cells and osteoblast, 7 days, TRAP-positive osteoclasts versus controls; for inhibition at 1 µM: Mus musculus, Osteoclast, 168 h, 1 m, read-out: % inhibitory activity on osteoclastogenesis
# How it was run: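 Percent inhibition versus control is based on microscope counts of TRAP-positive osteoclasts (3 or more nuclei) after 7 days of compound exposure. Cultures paired ddY mouse marrow cells with ICR calvarial osteoblasts, driven by dexamethasone 10^−7M plus vitamin D3 10^−8M, with medium and compound changed every 2–3 days.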
SMILES,inhibition at 1 µM,% inhibitory activity on osteoclastogenesis
"C=Cc1sc(N2CCOCC2)nc1-c1ccc(OCCCCCOc2ccc(C(=N)NO)cc2)cc1 [Example 171, N-hydroxy-4-(5-[4-(5-vinyl-2-morpholin-4-yl-1,3-thiazol-4-yl)phenoxy]pentoxy)-benzamidine]",96.2%,–
"N=C(NO)c1ccc(OCCCCCOc2ccc(-c3nc(N4CCOCC4)sc3C3CCCC3)cc2)cc1 [Example 172, N-hydroxy-4-(5-[4-(5-cyclopentyl-2-morpholin-4-yl-1,3-thiazol-4-yl)phenoxy]pentoxy)-benzamidine]",87.8%,–
"CC(C)Cc1sc(N2CCOCC2)nc1-c1ccc(OCCCCCOc2ccc(C(=N)NO)cc2)cc1 [Example 173, N-hydroxy-4-[5-[4-(5-isobutyl-2-morpholin-4-yl-1,3-thiazol-4-yl)phenoxy]pentoxy)-benzamidine]",9%,–
"N=C(NO)c1ccc(OCCCCCOc2ccc(-c3csc(N4CCOCC4)n3)cc2)cc1 [Example 175, N-hydroxy-4-(5-[4-(2-morpholin-4-yl-1,3-thiazol-4-yl)phenoxy]pentoxy)-benzamidine]",61.9%,–
"Cc1nc(-c2ccc(OCCOCCOc3ccc(C(=N)NO)cc3)cc2)c(C(C)C)s1 [Example 178, N-hydroxy-4-(2-[2-(4-(5-isopropyl-2-methyl-1,3-thiazol-4-yl)phenoxy)-ethoxy]-ethoxy)-benzamidine]",36.8%,–
"Cc1nc(-c2ccc(OCCC(C)(O)CCOc3ccc(C(=N)NO)cc3)cc2)c(C(C)C)s1 (centres unmarked) [Example 179, N-hydroxy-4-(3-hydroxy-5-[4-(5-isopropyl-2-methyl-1,3-thiazol-4-yl)-phenoxy]-3-methyl-pentoxy)-benzamidine]",100%,–
"Cc1nc(-c2ccc(OCC(C)NCCOc3ccc(C(=N)NO)cc3)cc2)c(C(C)C)s1 (centres unmarked) [Example 180, N-hydroxy-4-(2-[2-(4-(5-isopropyl-2-methyl-1,3-thiazol-4-yl)-phenoxy)-1-methyl-ethylamino]-ethoxy)-benzamidine]",32.6%,–
"Cc1nc(-c2ccc(OCCCCC(=O)Nc3ccc(C(=N)NO)cc3)cc2)c(C(C)C)s1 [Example 182, N-hydroxy-4-(5-[4-(5-isopropyl-2-methyl-1,3-thiazol-4-yl)-phenoxy]-pentanoyl-amino)-benzamidine]",81.1%,–
"Cc1nc(-c2ccc(OCCCCCN(C)c3ccc(C(=N)NO)cc3)cc2)c(C(C)C)s1 [Example 183, N-hydroxy-4-(5-[4-(5-isopropyl-2-methyl-1,3-thiazol-4-yl)-phenoxy]-pentyl-methyl-amino)-benzamidine]",65.6%,–
"Cc1nc(-c2ccc(OCCNCCOc3ccc(C(=N)NO)cc3)cc2)c(C(C)C)s1 [Example 186, N-hydroxy-4-(2-[2-(4-(5-isopropyl-2-methyl-1,3-thiazol-4-yl)phenoxy)-ethylamino]-ethoxy)-benzamidine]",71%,–
"COc1cc(C(=N)NO)ccc1OCCCCCOc1ccc(-c2nc(C)sc2C(C)C)cc1 [Example 189, N-hydroxy-4-(5-[4-(5-isopropyl-2-methyl-1,3-thiazol-4-yl)-phenoxy]-pentoxy-3-methoxy)-benzamidine]",–,38.7%
"Cc1nc(-c2ccc(OCCCCCOc3ccc(C(=N)NO)c(NC4CCCCC4)c3)cc2)c(C(C)C)s1 [Example 190, N-hydroxy-2-cyclohexylamino-4-(5-[4-(5-isopropyl-2-methyl-1,3-thiazol-4-yl)-phenoxy]-pentoxy)-benzamidine]",27.3%,–
"Cc1nc(-c2ccc(OCCCCCOc3ccc(C(=N)NO)cc3)cc2F)c(C(C)C)s1 [Example 191, N-hydroxy-4-(5-[3-fluoro-4-(5-isopropyl-2-methyl-1,3-thiazol-4-yl)-phenoxy]-pentoxy)-benzamidine]",8.8%,–
"Cc1nc(-c2ccc(OCCCCCOc3ccc(C(=N)NO)c(F)c3)cc2F)c(C(C)C)s1 [Example 192, N-hydroxy-2-fluoro-4-(5-[3-fluoro-4-(5-isopropyl-2-methyl-1,3-thiazol-4-yl)-phenoxy]-pentoxy)-benzamidine]",70.5%,–
"Cc1nc(-c2ccc(OCCCOc3ccc(C(=N)NO)cc3)cc2)c(C(C)C)s1 [Example 193, N-hydroxy-4-(3-[4-(5-isopropyl-2-methyl-1,3-thiazol-4-yl)phenoxy]propoxy)-benzamidine]",54.1%,–
"Cc1nc(-c2ccc(OCCCCOc3ccc(C(=N)NO)cc3)cc2)c(C(C)C)s1 [Example 194, N-hydroxy-4-(4-[4-(5-isopropyl-2-methyl-1,3-thiazol-4-yl)phenoxy]butoxy)-benzamidine]",19.8%,–
"Cc1nc(-c2ccc(OCCCCCNc3cccc(C(=N)NO)c3)cc2)c(C(C)C)s1 [Example 195, N-hydroxy-3-(5-[4-(5-isopropyl-2-methyl-thiazol-4-yl)-phenoxy]-pentylamino)-benzamidine]",42.3%,–
"CCc1sc(C2CCCCC2)nc1-c1ccc(OCCCCOc2ccc(C(=N)NO)cc2)cc1 [Example 196, N-hydroxy-4-(4-[4-(2-cyclohexyl-5-ethyl-thiazol-4-yl)-phenoxy]-butoxy)-benzamidine]",82%,–
"CCc1sc(N(C)CCO)nc1-c1ccc(OCCCCOc2ccc(C(=N)NO)cc2)cc1 [Example 198, N-hydroxy-4-(4-[4-(5-ethyl-2-[(2-hydroxyethyl)-methyl-amino]-thiazol-4-yl)phenoxy]butoxy)-benzamidine]",36.9%,–
"CCc1sc(N(C)Cc2cccnc2)nc1-c1ccc(OCCCOc2ccc(C(=N)NO)cc2)cc1 [Example 199, N-hydroxy-4-(3-[4-(5-ethyl-2-[methyl-(pyridin-3-yl-methyl)amino]-thiazol-4-yl)phenoxy]propoxy)-benzamidine]",82.9%,–
"CCc1sc(N(C)Cc2cccnc2)nc1-c1ccc(OCCCCOc2ccc(C(=N)NO)cc2)cc1 [Example 200, N-hydroxy-4-(4-[4-(5-ethyl-2-[methyl-(pyridin-3-yl-methyl)amino]-thiazol-4-yl)phenoxy]butoxy)-benzamidine]",38.7%,–
"CC(C)c1nc(-c2ccc(OCc3ccc(COc4ccc(C(=N)NO)cc4)cc3)cc2)c(CC2CCCC2)s1 [Example 201, N-hydroxy-4-(4-[4-(5-cyclopentylmethyl-2-isopropyl-thiazol-4-yl)-phenoxymethyl]-benzyloxy)-benzamidine]",85.6%,–
"CCCCc1sc(C(C)C)nc1-c1ccc(OCc2ccc(COc3ccc(C(=N)NO)cc3)cc2)cc1 [Example 202, N-hydroxy-4-(4-[4-(5-butyl-2-isopropyl-thiazol-4-yl)-phenoxymethyl]-benzyloxy)-benzamidine]",85.6%,–
"N=C(NO)c1ccc(OCc2ccc(COc3ccc(-c4nc(N)sc4CC4CCCC4)cc3)cc2)cc1 [Example 203, N-hydroxy-4-(4-[4-(5-cyclopentylnnethyl-2-amino-thiazol-4-yl)-phenoxymethyl]-benzyloxy)-benzamidine]",–,68.8%
"Cc1nc(-c2ccc(OCCCCOc3ccc(C(=N)NO)c(F)c3)cc2)c(C(C)C)s1 [Example 207, N-hydroxy-2-fluoro-4-(5-[4-(5-isopropyl-2-methyl-thiazol-4-yl)-phenoxy]-butoxy)-benzamidine]",–,14.4%
"Cc1nc(-c2ccc(OCc3cccc(COc4ccc(C(=N)NO)cc4)c3)cc2)c(C(C)C)s1 [Example 209, N-hydroxy-4-(3-[4-(5-isopropyl-2-methyl-thiazol-4-yl)-phenoxymethyl]-benzyloxy)-benzamidine]",14.3%,–
